Like-named read-outs stand apart in the source and are kept apart here. One block for each compound: values may come before it.
Experiments:
[1] = Antiamnesic activity in the mouse (step-down passive avoidance, amnesia induced by ECS); assay type: in vivo, mouse (CD1 male)
Excerpt: 1) Antiamnesic activity in the mouse (step-down passive avoidance)
An electroconvulsive shock (ECS) produces retrograde amnesia in the test animal if applied immediately after the training received, for example, a harmful stimulus of a suitable intensity.
The object of the experiment was to study the effects of the compounds of the invention in antagonizing the amnesic effect of an ECS on the short-term memory consolidation process.
CD1 male mice which weighed about 30-35 g, and had not fasted were used. The equipment used was a rectangular plexiglass cage (21×21×40cm) with an electrifiable grid floor and a wooden cube (4×4×4 cm) fixed in the centre of the cage. The animals were treated orally with the product under test 60 minutes before the training.
The mouse was placed delicately on the wooden cube and the time it took to descend to the grid floor (SDL=step-down latency) was measured. When all four of the animal's paws were resting on the floor the continuous 0.2 mA shock started and the time taken by The mouse to remount the wooden cube (EL=escape latency) was measured.
The animals with an SDL of between 3 and 30 sec and with an EL of between 3 and 60 sec were used for retesting.
Immediately afterwards, a transcorneal ECS was applied with the use of the following parameters: amperage 15 mA, frequency 50 Hz, duration of the train of pulses 0.4 sec. duration of each individual pulse 1 msec., interval between pulses 20 msec. As well as the groups treated with ECS, a control group without ECS and a control group with ECS were used.
The retest was carried out after 24 h.
The results are expressed as the percentage variation of the SDL of the treated groups in comparison with the control group by means of this formula: [formula]

[2] = Memory-enhancement activity in the passive avoidance test in the rat; assay type: in vivo, rat (male Wistar); settings: for change in vivo at 0.1 mg/kg / change in vivo at 1 mg/kg / change in vivo at 10 mg/kg: 96 h, read-out: % variation vs controls (FS) in step through latency
Experimental: 2) Memory-enhancement activity in the "passive avoidance" test in the rat
A "passive avoidance" model was used, which required a single "step-through" situation and a retest of the "retention memory" 72 h after the training.
Male Wistar rats which weighed about 200 g and had not fasted, were used. The test consisted of evaluating the degree of memory of an animal after it had been trained as follows.
The equipment used was a shuttle box modified thus: one compartment was lined with black card including the cover, and a 60 W lamp was disposed above the other, spaced from the grid floor by about 40 cm. The two compartments were divided by an automatic guillotine-like door. Each animal was placed in the compartment in the light with the guillotine-likedoor open. From this moment, the time taken by the rat to go into the compartment lined with black card (the dark compartment) (the step-throughlatency=STL) was measured. The animals which took more than 30 sec to go into the dark were discarded. Once they had gone into the dark, the door was lowered automatically and a=0.1 mA shock lasting 5 sec (a foot shock=FS) started. After 10 sec, the animal was removed from the shuttle box.
Upon completion, the animals were selected randomly in homogeneous groups and treated with the products.
The retest to determine memory was made after 72 hours. The products were administered chronically in the preselected manner twice per day and the last treatment 30 min before the retest (6 treatments altogether).
The memory-retention test (the retest) consisted of placing each animal, treated 30 min beforehand with a physiological solution or with the product, in the compartment which was not lined with black card for 30 sec.
The results are expressed as the percentage variation of the STL (in seconds) of the groups treated in comparison with the control group by means of this formula: [formula]

[3] = Antagonism of the amnesic effect induced by scopolamine in the passive avoidance test in the rat; assay type: in vivo; settings: for % Effect vs controls / Latency (STL): FS + SCOP
Experimental: 4) Antagonism of the amnesic effect induced by scopolamine in the "passive avoidance" test in the rat.
The shuttle box equipment was used for passive avoidance as described in Experiment 2 with the following modifications: the compounds (or physiological solutions for the control group) were administered intraperitoneally (IP) 45 min before the training, whereas scopolamine (SCOP) was administered 30 min before the training. The foot shock (FS) consisted of a 0.2 mA shock of 5 sec duration.
The retest to determine memory was executed 24 h after the training. In each individual experiment, the following groups were used: a control group (-FS), a control group (+FS), a control group (FS+SCOP), 3 treatment groups with different doses of the product under test (FS+SCOP).

[4] = Antidepressant activity in the behavioural despair test in the mouse; assay type: in vivo, mouse (male CD1); settings: for inhibition in vivo at 3 mg/kg / inhibition in vivo at 10 mg/kg / inhibition in vivo at 30 mg/kg: 5 min, 5 minutes, read-out: Decrease in immobility (as %) vs the controls; for inhibition in vivo at 3 mg/kg: 3 mg/kg IP; for inhibition in vivo at 10 mg/kg: 10 mg/kg IP; for inhibition in vivo at 30 mg/kg: 30 mg/kg IP
Excerpt: 5) Antidepressant activity in the "behavioural despair test" Another interesting aspect of the pharmacological activity of these products is the potent antidepressant activity which some of them display in an experimental model in the mouse, in which a state of depression is induced experimentally by the method of Porsolt et al. (Arch. Int. Pharmacodyn. 229, p. 327-336 (1977)). Male CDl mice which weighed about 20-25 g and had not fasted were used. The test consisted of inducing a state of depression in the animal which was subjected to forced swimming in a glass cylinder from which it could not escape. After a short period of vigorous activity the mouse adopted a characteristic posture of immobility which was easily identifiable; this immobility is reduced by antidepressant drugs. 1 l glass beakers, filled to 700 ml with water at a temperature of 25° C. were used for the test. The mice, 8 per group, were treated intraperitoneally with the drug under test, 30 minutes before the test. At time 0, each animal was immersed in a beaker and, after one minute during which all moved about swimming vigorously in order to escape, regardless of treatment, the observer, who was unaware of the treatment, assigned the following points: 0=animal immobile 1=minimum movement to remain afloat 2=vigorous swimming The greater the antidepressant activity of the drug, the more the animals will move about in order to try to escape from the water. The points were assigned every 15 sec for a total period of 5 min with a total of 20 observations. The antidepressant activity was determined with the use of various doses of the compound by the regression method as the ED50, that is, the dose in mg/kg of the compound which could antagonise the animal's immobility time by 50%.

[5] = system: excitor amino-acid receptors of cortical membranes ("forebrain") of rats; assay: Inhibition of the specific binding of [3H]-glutamate to rat forebrain membranes; settings: for IC50: rat forebrain membranes, 20 min, 37° C., pH 7.1
Excerpt: 6) Studies on binding to rat "forebrain" membranes
L-glutamate recognizes all three receptor subtypes indicated above, al though not selectively. It is therefore desirable to evaluate the capacity of each of the compounds of the invention to interact with the excitor amino-acid receptors of the CNS.
"Forebrain", that is, the cerebral cortex and the hippocampus, were selected as the receptor tissue and ^3 H-L-glutamate as the ligand for marking this heterogenous receptor population.
Rat cerebral tissue (forebrain without striated tissue) was therefore homogeneised cold in tris buffer at pH 7.4. After washing and centrifuging, the final pellet was resuspended in 50 volumes of tris HCl binding buffer at 7.1. 0.5 ml of receptor membrane thus obtained were then incubated, together with the radioactive tracer and the compounds under test, for 20 min at 37° C. The reaction was terminated by separating the bound radio-ligand from the free radio-ligand by filteration on glass-fibre filters which, after washing, were counted in a liquid scintillator (a β-counter) thus determining the radioactivity associated with the pellet. The specific binding was determined as the difference between the binding in the absence and in the presence of cold 3.6 mM L-glutamate.

[6] = Mus musculus, po, 24 h, read-out: Reversal of the amnesia (% vs controls), as the increase in the Step Down Latency
[7] = po, 10 mg/kg OS, mouse, retest 24 h after training, read-out: Reversal of the amnesia (% vs controls), as the increase in the Step Down Latency
[8] = 0.1 mg/kg IP, rat, retest on the 4th day, 6 treatments
[9] = 1 mg/kg IP, rat, retest on the 4th day, 6 treatments
[10] = 10 mg/kg IP, rat, retest on the 4th day, 6 treatments

Structure (SMILES): Nc1c2c(nc3ccccc13)CCCC2 [Tacrine, reference compound]
change in vivo at 0.1 mg/kg [1, 6]: 10% | change in vivo at 1 mg/kg [1, 6]: 9% | change in vivo at 3 mg/kg [1, 6]: 20% | change in vivo at 10 mg/kg [1, 6]: 9% | Antiamnesic activity (in words) ([1]; OS, mouse): inactive | change in vivo at 0.1 mg/kg ([2]; Rattus norvegicus, ip): 7% | change in vivo at 1 mg/kg ([2]; Rattus norvegicus, ip): 6% | change in vivo at 10 mg/kg ([2]; Rattus norvegicus, ip): 12% | Activity in increasing the avoidance time (in words) ([2]; rat, IP, retest on the 4th day): inactive | % Effect vs controls ([3]; 0.3 mg/kg IP): 0% | Latency (STL) ([3]; 0.3 mg/kg IP): 59.7 s | % Effect vs controls ([3]; 1 mg/kg IP): 41.1% | Latency (STL) ([3]; 1 mg/kg IP): 73.1 s | % Effect vs controls ([3]; 3 mg/kg IP): 49.2% | Latency (STL) ([3]; 3 mg/kg IP): 75.3 s | % Effect vs controls ([3]; 10 mg/kg IP): 64.8% | Latency (STL) ([3]; 10 mg/kg IP): 79.5 s | ED50 ([3]; Rattus norvegicus, ip, 24 h, read-out: ID50 (dose antagonizing the amnesic effect of scopolamine by 50%)): 3.4 mg/kg

IC50 [5]: 14.4 µM
Structure (SMILES): N[C@@H](CCC(=O)O)C(=O)NC1CCCCCC1 [Compound 20]
change in vivo at 3 mg/kg ([1]; po, 3 mg/kg OS, mouse, retest 24 h after training, read-out: Reversal of the amnesia (% vs controls), as the increase in the Step Down Latency): 15% | change in vivo at 10 mg/kg [1, 7]: 41% | change in vivo at 30 mg/kg ([1]; po, 30 mg/kg OS, mouse, retest 24 h after training, read-out: Reversal of the amnesia (% vs controls), as the increase in the Step Down Latency): 61% | ED50 ([1]; po, OS, mouse, 60 min before training, read-out: ID50 (antiamnesic activity, dose inhibiting the amnesic effect of the ECS by 50%)): 17.3 mg/kg | change in vivo at 0.1 mg/kg [2, 8]: 7% | change in vivo at 1 mg/kg [2, 9]: 20% | change in vivo at 10 mg/kg [2, 10]: 36% | ED30 ([2]; IP, rat, read-out: ED30 (dose increasing the latency time (STL) by 30%)): 4.2 mg/kg | Activity in increasing the avoidance time (in words) ([2]; rat, IP, retest on the 4th day): considerable activity in increasing the avoidance time | inhibition in vivo at 3 mg/kg [4]: 0% | inhibition in vivo at 10 mg/kg [4]: 11% | inhibition in vivo at 30 mg/kg [4]: 52% | ED50 ([4]; IP, read-out: ED50 (dose antagonising immobility time by 50%)): 36.1 mg/kg | Activity in inhibiting the binding of glutamate (in words) ([5]; rat cortical membranes): considerable activity in inhibiting the binding of the glutamate

IC50 [5]: 312 µM
Structure (SMILES): N[C@H](CCC(=O)O)C(=O)NCCC12CC3CC(CC(C3)C1)C2 [Compound 17]
Antiamnesic activity (in words) ([1]; OS, mouse): completely inactive | change in vivo at 0.1 mg/kg ([1]; po, 0.1 mg/kg OS, mouse, retest 24 h after training, read-out: Reversal of the amnesia (% vs controls), as the increase in the Step Down Latency): 0% | change in vivo at 1 mg/kg ([1]; po, 1 mg/kg OS, mouse, retest 24 h after training, read-out: Reversal of the amnesia (% vs controls), as the increase in the Step Down Latency): 14% | change in vivo at 10 mg/kg [1, 7]: 10% | change in vivo at 0.1 mg/kg [2, 8]: 0% | change in vivo at 1 mg/kg [2, 9]: 0% | change in vivo at 10 mg/kg [2, 10]: 0% | Activity in increasing the avoidance time (in words) ([2]; rat, IP, retest on the 4th day): inactive | inhibition in vivo at 3 mg/kg [4]: 7% | inhibition in vivo at 10 mg/kg [4]: 12% | inhibition in vivo at 30 mg/kg [4]: 0% | Antidepressant activity (in words) ([4]; IP): inactive | ED50 (dose antagonising immobility time by 50%) ([4]; IP): Inactive
